Publication PMC8778681, “Crystal Structure, Solubility, and Pharmacokinetic Study on a Hesperetin Cocrystal with Piperine as Coformer” (Pharmaceutics, 2022)
Values after ≈ are worked out from the molar mass of the structure shown.

Tests used:
[1] = Solubility experiment in simulated gastrointestinal fluid; type: physicochemical; details: thermodynamic from solid, 100 rpm
Procedure: The solubility of the HES–PIP cocrystal in simulated gastrointestinal fluid was measured in the present study following the method described in the literature but slightly modified. The samples were previously milled and sieved (75–150 μm) before examination to reduce the effect of the crystal’s size on its solubility behavior. A specific amount (containing 25 mg of HES) of the HES–PIP cocrystal was weighed and added into a centrifuge tube containing 5 mL dissolving medium, and the suspension was incubated at 37 ± 0.2 °C rotating at 100 rpm. Taking a tube at 0.25 h, 0.5 h, 1 h, 2 h, 4 h, 6 h, 8 h, 12 h, 24 h, and 48 h, the samples were centrifuged at 12,000 rpm for 5 min, and the supernatant was diluted with methanol and analyzed by HPLC. The cocrystal’s solubility at different times was compared with that of raw HES. […] The residual solid in each tube was also analyzed by PXRD.
The cocrystal’s supersaturation factor (SF) was calculated through the drug supersaturation–time curve following the method presented in a previous study, and the calculation formula is as follows:(1) SF=AUC0.25−48 h(Cocrystal)/AUC0.25−48 h(Hesperetin) where SF is the supersaturation factor, AUC0.25–48 h (Cocrystal) is the area under the curve of the cocrystal supersaturation–time profile, and AUC0.25–48 h (Hesperetin) is the area under the curve for a saturated solution.

[2] = Bioavailability / pharmacokinetics after oral gavage in rats; type: in vivo; details: Sprague-Dawley, 80 mg/kg, HES in rat plasma, equivalent to 80 mg HES/kg
Procedure: Eighteen Sprague–Dawley rats weighing 220–250 g were randomly divided into three groups (n = 6), fasted for 12 h but freely given water before the experiment. The HES, the physical mixture of HES and PIP, and the HES–PIP cocrystal were delivered by gavage at a dose equivalent to 80 mg of the HES/kg body weight of the animal as a suspension in water. Next, 500 µL blood was withdrawn and placed in a centrifuge tube with heparin from the eye sockets of rats at 0.25 h, 0.5 h, 1 h, 2 h, 4 h, 6 h, 8 h, 12 h, 24 h, and 48 h after oral administration. The plasma was separated by centrifugation (4000 rpm, 15 min) and saved at −80 °C until analysis. Next, 100 µL of plasma sample was added into 400 μL of methanol and vortexed for 5 min to fully precipitate the protein [44], then centrifuged at 10,000 rpm for 10 min. The supernatant was then transferred to another tube and evaporated to remove the solvent under a stream of nitrogen. The residual solid was then dissolved in methanol with vortex oscillation for 3 min, and the mixture was centrifuged at 10,000 rpm for 10 min. Finally, the supernatant was analyzed via HPLC method for HES content. PK parameters were obtained on the basis of a model-independent method using DAS 2 program.

solubility ([1]; fassgf or other biorelevant, simulated gastrointestinal fluid pH 6.8, 37 °C, HES–PIP maximum at 6 h): 21.1 µg/mL (≈ 69.9 µM)
solubility ([1]; simulated gastric fluid, simulated gastrointestinal fluid pH 1.2, 37 °C, HES–PIP maximum at 8 h): 23.1 µg/mL (≈ 76.5 µM)
AUC(0-t) ([2]; n = 6): 530 ng·h/mL
Tmax ([2]; n = 6): 30 min
half-life ([2]; n = 6): 181 min
MRT last ([2]; n = 6, read-out: MRT(0–t)): 5.86 h
Cmax ([2]; suspension in water, n = 6): 120 ng/mL
SMILES: COc1ccc([C@@H]2CC(=O)c3c(O)cc(O)cc3O2)cc1O [HES, ((S)-2,3-dihydro-5,7-dihydroxy-2-(3-hydroxy-4 methoxy-phenyl)-4H-1-benzopyran-4-one)]
